Measured values reported in the kinase profiling compilation of Christmann-Franck et al. (2016).
Values belong to the compound of their own block, whether it stands above or below them.

What was measured:
Assay in all cases: radiometric filter-binding kinase assay
FLT1 (human) = FLT1 (human) (UniProt P17948)
GCK (human) = GCK (human) (UniProt Q12851)
MAP2K6 (human) = MAP2K6 (human) (UniProt P52564)
PIM3 (human) = PIM3 (human) (UniProt Q86V86)
MAPK10 (human) = MAPK10 (human) (UniProt P53779)
CHEK1 (human) = CHEK1 (human) (UniProt O14757)
TAOK1 (human) = TAOK1 (human) (UniProt Q7L7X3)
EPHA2 (human) = EPHA2 (human) (UniProt P29317)
PRKCA (human) = PRKCA (human) (UniProt P17252)
MINK1 (human) = MINK1 (human) (UniProt Q8N4C8)
MAPK12 (human) = MAPK12 (human) (UniProt P53778)
MAPK15 (human) = MAPK15 (human) (UniProt Q8TD08)
CSNK2A1 (human) = CSNK2A1 (human) (UniProt P68400)
MAPKAPK3 (human) = MAPKAPK3 (human) (UniProt Q16644)
MELK (human) = MELK (human) (UniProt Q14680)
AURKA (human) = AURKA (human) (UniProt O14965)
CDK2 CCNA2 (human) = CDK2 CCNA2 (human) (UniProt P20248+P24941)
MAP2K2 (human) = MAP2K2 (human) (UniProt P36507)
PHKG1 (human) = PHKG1 (human) (UniProt Q16816)
ERBB4 (human) = ERBB4 (human) (UniProt Q15303)
RIPK2 (human) = RIPK2 (human) (UniProt O43353)
PRKACA (human) = PRKACA (human) (UniProt P17612)
AURKB (human) = AURKB (human) (UniProt Q96GD4)
DYRK2 (human) = DYRK2 (human) (UniProt Q92630)
PIM2 (human) = PIM2 (human) (UniProt Q9P1W9)
BRSK1 (human) = BRSK1 (human) (UniProt Q8TDC3)
EEF2K (human) = EEF2K (human) (UniProt O00418)
BTK (human) = BTK (human) (UniProt Q06187); conditions: compound 1.0 µM
FGFR1 (human) = FGFR1 (human) (UniProt P11362)
MAPKAPK5 (human) = MAPKAPK5 (human) (UniProt Q8IW41)
SRPK1 (human) = SRPK1 (human) (UniProt Q96SB4)
INSRR (human) = INSRR (human) (UniProt P14616)
[1] = tested on: SGK1 (human), O00141 [S422D]
MST4 (human) = MST4 (human) (UniProt Q9P289)
[2] = tested on: PAK2 (human), Q13177 [T402E]
RPS6KA3 KD1 KD2 (human) = RPS6KA3 KD1 KD2 (human) (UniProt P51812)

Sequence of AURKB (human) (Q96GD4 whole entry, looked up): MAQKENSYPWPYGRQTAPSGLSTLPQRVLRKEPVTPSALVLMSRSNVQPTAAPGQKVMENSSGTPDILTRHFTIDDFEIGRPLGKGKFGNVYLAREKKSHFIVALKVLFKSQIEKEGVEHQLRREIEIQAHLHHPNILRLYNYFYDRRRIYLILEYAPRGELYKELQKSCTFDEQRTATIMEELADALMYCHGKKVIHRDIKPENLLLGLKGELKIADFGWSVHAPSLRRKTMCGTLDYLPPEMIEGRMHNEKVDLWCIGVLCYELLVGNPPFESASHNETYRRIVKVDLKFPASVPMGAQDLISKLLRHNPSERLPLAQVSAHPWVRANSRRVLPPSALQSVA
Sequence of FLT1 (human) (P17948 whole entry, looked up): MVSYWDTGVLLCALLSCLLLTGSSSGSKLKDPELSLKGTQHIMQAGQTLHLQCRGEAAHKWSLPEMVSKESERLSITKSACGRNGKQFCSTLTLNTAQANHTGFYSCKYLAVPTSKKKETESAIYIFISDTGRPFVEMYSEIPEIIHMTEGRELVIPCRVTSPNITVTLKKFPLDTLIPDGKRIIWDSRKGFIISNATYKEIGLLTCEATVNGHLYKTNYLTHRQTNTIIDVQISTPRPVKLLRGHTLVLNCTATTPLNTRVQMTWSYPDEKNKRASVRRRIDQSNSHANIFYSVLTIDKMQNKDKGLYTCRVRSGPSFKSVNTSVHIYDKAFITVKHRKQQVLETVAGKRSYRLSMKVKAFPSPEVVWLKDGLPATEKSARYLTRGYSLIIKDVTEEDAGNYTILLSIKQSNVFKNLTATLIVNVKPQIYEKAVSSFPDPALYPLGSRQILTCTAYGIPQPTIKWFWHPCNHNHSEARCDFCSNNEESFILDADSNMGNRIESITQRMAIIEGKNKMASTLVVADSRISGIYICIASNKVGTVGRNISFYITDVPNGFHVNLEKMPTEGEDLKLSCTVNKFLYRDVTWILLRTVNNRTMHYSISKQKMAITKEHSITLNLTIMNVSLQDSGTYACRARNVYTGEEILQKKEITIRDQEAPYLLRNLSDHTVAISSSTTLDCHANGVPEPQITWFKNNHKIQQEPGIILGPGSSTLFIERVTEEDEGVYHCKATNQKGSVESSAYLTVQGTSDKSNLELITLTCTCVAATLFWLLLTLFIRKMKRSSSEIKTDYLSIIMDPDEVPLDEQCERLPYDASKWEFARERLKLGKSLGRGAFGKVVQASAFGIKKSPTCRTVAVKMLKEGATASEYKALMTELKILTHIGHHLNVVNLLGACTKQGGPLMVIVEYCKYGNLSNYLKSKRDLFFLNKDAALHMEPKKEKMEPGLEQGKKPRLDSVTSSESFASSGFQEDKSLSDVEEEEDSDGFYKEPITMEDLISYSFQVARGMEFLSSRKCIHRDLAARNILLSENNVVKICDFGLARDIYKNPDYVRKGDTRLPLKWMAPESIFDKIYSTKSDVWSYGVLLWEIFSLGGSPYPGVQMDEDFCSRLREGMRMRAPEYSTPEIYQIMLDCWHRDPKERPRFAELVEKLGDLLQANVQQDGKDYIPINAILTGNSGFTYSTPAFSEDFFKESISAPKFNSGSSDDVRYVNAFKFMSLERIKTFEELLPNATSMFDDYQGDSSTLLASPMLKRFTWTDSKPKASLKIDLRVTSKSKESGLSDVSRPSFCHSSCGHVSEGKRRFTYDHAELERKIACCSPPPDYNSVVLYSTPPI
Sequence of CHEK1 (human) (O14757 whole entry, looked up): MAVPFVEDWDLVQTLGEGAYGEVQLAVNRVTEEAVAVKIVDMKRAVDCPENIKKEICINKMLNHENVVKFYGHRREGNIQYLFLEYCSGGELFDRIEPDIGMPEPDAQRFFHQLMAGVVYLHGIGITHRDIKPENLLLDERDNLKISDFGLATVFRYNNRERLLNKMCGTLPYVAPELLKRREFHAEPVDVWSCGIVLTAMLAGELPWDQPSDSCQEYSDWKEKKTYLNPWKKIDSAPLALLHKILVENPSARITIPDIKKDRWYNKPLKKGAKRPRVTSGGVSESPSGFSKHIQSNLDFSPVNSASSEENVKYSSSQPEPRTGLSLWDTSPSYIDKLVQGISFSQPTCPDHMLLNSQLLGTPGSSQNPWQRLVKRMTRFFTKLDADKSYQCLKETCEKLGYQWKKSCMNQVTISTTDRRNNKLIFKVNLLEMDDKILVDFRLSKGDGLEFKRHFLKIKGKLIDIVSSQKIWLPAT
Sequence of PHKG1 (human) (Q16816 whole entry, looked up): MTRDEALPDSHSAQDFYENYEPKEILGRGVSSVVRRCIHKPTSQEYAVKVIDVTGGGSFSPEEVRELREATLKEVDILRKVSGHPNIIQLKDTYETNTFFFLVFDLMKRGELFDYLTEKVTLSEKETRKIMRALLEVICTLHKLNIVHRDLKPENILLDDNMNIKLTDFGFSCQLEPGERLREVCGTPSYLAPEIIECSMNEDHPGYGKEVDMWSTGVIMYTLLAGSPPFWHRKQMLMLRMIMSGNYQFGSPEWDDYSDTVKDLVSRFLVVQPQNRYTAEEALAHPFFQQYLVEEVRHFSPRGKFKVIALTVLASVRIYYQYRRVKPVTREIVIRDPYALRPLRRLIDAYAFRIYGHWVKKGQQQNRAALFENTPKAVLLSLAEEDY
Sequence of TAOK1 (human) (Q7L7X3 whole entry, looked up): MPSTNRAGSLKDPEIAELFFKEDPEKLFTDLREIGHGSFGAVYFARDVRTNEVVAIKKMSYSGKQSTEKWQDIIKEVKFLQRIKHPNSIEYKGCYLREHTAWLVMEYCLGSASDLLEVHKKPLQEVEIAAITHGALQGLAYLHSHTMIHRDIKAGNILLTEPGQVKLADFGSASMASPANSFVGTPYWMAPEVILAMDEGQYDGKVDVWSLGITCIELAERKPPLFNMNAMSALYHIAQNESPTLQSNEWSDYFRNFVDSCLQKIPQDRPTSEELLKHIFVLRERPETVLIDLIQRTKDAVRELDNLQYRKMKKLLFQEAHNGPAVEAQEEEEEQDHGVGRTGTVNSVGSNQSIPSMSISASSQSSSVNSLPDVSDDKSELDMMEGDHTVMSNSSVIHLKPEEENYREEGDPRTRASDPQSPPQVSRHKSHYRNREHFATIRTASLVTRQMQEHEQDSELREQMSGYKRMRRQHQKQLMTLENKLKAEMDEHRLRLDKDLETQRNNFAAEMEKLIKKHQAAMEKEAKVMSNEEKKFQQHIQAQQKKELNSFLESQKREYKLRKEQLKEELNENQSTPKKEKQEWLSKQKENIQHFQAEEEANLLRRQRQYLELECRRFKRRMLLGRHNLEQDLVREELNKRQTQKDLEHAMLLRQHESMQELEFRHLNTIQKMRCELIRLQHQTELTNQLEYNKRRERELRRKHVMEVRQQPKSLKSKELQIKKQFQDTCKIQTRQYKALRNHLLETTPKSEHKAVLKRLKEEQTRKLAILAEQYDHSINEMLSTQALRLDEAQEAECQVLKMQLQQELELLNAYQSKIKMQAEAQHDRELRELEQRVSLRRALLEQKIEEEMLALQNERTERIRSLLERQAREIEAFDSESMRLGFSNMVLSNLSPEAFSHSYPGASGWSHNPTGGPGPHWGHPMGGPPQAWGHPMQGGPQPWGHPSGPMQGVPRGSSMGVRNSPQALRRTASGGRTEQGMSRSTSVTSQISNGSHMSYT
Sequence of MAPKAPK5 (human) (Q8IW41 whole entry, looked up): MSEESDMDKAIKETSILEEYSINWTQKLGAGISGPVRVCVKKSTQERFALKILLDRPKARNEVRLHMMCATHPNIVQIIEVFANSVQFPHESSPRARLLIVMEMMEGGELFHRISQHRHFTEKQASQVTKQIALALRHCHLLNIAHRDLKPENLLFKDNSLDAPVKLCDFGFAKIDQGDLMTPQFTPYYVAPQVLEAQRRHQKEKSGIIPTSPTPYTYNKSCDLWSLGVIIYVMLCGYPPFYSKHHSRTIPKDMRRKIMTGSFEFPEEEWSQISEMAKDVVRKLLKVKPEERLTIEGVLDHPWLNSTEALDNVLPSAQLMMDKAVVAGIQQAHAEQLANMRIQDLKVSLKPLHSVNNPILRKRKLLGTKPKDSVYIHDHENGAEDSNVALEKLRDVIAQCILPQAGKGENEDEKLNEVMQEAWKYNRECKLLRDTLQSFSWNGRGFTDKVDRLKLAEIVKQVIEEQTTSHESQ
Sequence of FGFR1 (human) (P11362 whole entry, looked up): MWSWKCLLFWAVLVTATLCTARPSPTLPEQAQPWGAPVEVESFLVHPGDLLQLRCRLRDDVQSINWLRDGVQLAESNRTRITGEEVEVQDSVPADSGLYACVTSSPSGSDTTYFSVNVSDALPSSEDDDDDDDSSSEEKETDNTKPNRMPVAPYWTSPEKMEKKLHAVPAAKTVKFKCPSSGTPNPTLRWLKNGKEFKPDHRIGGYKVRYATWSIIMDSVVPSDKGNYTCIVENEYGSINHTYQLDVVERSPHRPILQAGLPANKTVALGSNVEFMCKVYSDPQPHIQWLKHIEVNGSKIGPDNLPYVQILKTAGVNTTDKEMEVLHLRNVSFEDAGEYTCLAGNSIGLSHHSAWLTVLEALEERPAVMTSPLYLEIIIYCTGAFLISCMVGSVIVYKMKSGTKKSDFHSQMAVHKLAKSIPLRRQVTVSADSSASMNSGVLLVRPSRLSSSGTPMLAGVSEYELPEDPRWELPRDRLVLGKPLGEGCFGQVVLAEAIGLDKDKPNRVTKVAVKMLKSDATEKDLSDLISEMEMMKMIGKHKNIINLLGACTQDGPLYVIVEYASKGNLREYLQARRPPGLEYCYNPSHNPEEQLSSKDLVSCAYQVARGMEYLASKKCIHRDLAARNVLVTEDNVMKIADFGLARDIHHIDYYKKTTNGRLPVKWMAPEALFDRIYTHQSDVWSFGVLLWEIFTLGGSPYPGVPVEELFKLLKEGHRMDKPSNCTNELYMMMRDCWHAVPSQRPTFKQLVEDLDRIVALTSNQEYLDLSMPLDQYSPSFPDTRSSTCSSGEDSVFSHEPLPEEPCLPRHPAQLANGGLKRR

residual activity (FLT1 (human); compound 0.1 µM): 59%
residual activity (FLT1 (human); compound 1.0 µM): 32%
residual activity (GCK (human); compound 0.1 µM): 45%
residual activity (GCK (human); compound 1.0 µM): 20%
residual activity (MAP2K6 (human); compound 0.1 µM): 97%
residual activity (MAP2K6 (human); compound 1.0 µM): 91%
residual activity (PIM3 (human); compound 0.1 µM): 97%
residual activity (PIM3 (human); compound 1.0 µM): 84%
residual activity (MAPK10 (human); compound 0.1 µM): 15%
residual activity (MAPK10 (human); compound 1.0 µM): 16%
residual activity (CHEK1 (human); compound 0.1 µM): 74%
residual activity (CHEK1 (human); compound 1.0 µM): 88%
residual activity (TAOK1 (human); compound 0.1 µM): 96%
residual activity (EPHA2 (human); compound 0.1 µM): 110%
residual activity (EPHA2 (human); compound 1.0 µM): 125%
residual activity (PRKCA (human); compound 0.1 µM): 89%
residual activity (PRKCA (human); compound 1.0 µM): 97%
residual activity (MINK1 (human); compound 0.1 µM): 92%
residual activity (MINK1 (human); compound 1.0 µM): 69%
residual activity (MAPK12 (human); compound 0.1 µM): 90%
residual activity (MAPK12 (human); compound 1.0 µM): 103%
residual activity (CSNK2A1 (human); compound 0.1 µM): 80%
residual activity (CSNK2A1 (human); compound 1.0 µM): 81%
residual activity (MAPKAPK3 (human); compound 0.1 µM): 104%
residual activity (MAPKAPK3 (human); compound 1.0 µM): 101%
residual activity (MELK (human); compound 0.1 µM): 71%
residual activity (MELK (human); compound 1.0 µM): 48%
residual activity (AURKA (human); compound 0.1 µM): 107%
residual activity (AURKA (human); compound 1.0 µM): 97%
residual activity (CDK2 CCNA2 (human); compound 0.1 µM): 85%
residual activity (CDK2 CCNA2 (human); compound 1.0 µM): 72%
residual activity (MAP2K2 (human); compound 0.1 µM): 87%
residual activity (MAP2K2 (human); compound 1.0 µM): 102%
residual activity (PHKG1 (human); compound 0.1 µM): 94%
residual activity (PHKG1 (human); compound 1.0 µM): 83%
residual activity (ERBB4 (human); compound 1.0 µM): 106%
residual activity (RIPK2 (human); compound 1.0 µM): 42%
residual activity (PRKACA (human); compound 0.1 µM): 97%
residual activity (PRKACA (human); compound 1.0 µM): 108%
residual activity (AURKB (human); compound 0.1 µM): 74%
residual activity (AURKB (human); compound 1.0 µM): 73%
residual activity (DYRK2 (human); compound 1.0 µM): 56%
residual activity (PIM2 (human); compound 0.1 µM): 96%
residual activity (PIM2 (human); compound 1.0 µM): 102%
residual activity (BRSK1 (human); compound 0.1 µM): 94%
residual activity (BRSK1 (human); compound 1.0 µM): 86%
residual activity (EEF2K (human); compound 0.1 µM): 97%
residual activity (EEF2K (human); compound 1.0 µM): 101%
residual activity (BTK (human)): 85%
residual activity (FGFR1 (human); compound 0.1 µM): 94%
residual activity (FGFR1 (human); compound 1.0 µM): 95%
residual activity (MAPKAPK5 (human); compound 0.1 µM): 96%
residual activity (MAPKAPK5 (human); compound 1.0 µM): 85%
residual activity (SRPK1 (human); compound 0.1 µM): 105%
residual activity (SRPK1 (human); compound 1.0 µM): 104%
residual activity (INSRR (human); compound 0.1 µM): 72%
residual activity (INSRR (human); compound 1.0 µM): 64%
residual activity ([1]; compound 1.0 µM): 105%
residual activity (MST4 (human); compound 0.1 µM): 98%
residual activity (MST4 (human); compound 1.0 µM): 104%
residual activity ([2]; compound 0.1 µM): 102%
residual activity ([2]; compound 1.0 µM): 93%
residual activity (RPS6KA3 KD1 KD2 (human); compound 0.1 µM): 80%
residual activity (RPS6KA3 KD1 KD2 (human); compound 1.0 µM): 80%
Compound: CN(C)C/C=C/C(=O)Nc1cccc(C(=O)Nc2ccc(Nc3nccc(-c4cccnc4)n3)cc2)c1
residual activity (MAPK15 (human); compound 0.1 µM): 46%
residual activity (MAPK15 (human); compound 1.0 µM): 20%

residual activity (FLT1 (human); compound 1.0 µM): 55%
residual activity (FLT1 (human); compound 10.0 µM): 14%
residual activity (GCK (human); compound 1.0 µM): 73%
residual activity (GCK (human); compound 10.0 µM): 25%
residual activity (MAP2K6 (human); compound 1.0 µM): 71%
residual activity (MAP2K6 (human); compound 10.0 µM): 31%
residual activity (PIM3 (human); compound 1.0 µM): 101%
residual activity (PIM3 (human); compound 10.0 µM): 78%
residual activity (MAPK10 (human); compound 1.0 µM): 80%
residual activity (MAPK10 (human); compound 10.0 µM): 48%
residual activity (CHEK1 (human); compound 1.0 µM): 58%
residual activity (CHEK1 (human); compound 10.0 µM): 25%
residual activity (TAOK1 (human); compound 1.0 µM): 99%
residual activity (TAOK1 (human); compound 10.0 µM): 80%
residual activity (EPHA2 (human); compound 1.0 µM): 81%
residual activity (EPHA2 (human); compound 10.0 µM): 93%
residual activity (PRKCA (human); compound 1.0 µM): 96%
residual activity (PRKCA (human); compound 10.0 µM): 101%
residual activity (MINK1 (human); compound 1.0 µM): 124%
residual activity (MINK1 (human); compound 10.0 µM): 109%
residual activity (MAPK12 (human); compound 1.0 µM): 98%
residual activity (MAPK12 (human); compound 10.0 µM): 96%
residual activity (CSNK2A1 (human); compound 1.0 µM): 96%
residual activity (CSNK2A1 (human); compound 10.0 µM): 74%
residual activity (MAPKAPK3 (human); compound 1.0 µM): 108%
residual activity (MAPKAPK3 (human); compound 10.0 µM): 124%
residual activity (MELK (human); compound 1.0 µM): 91%
residual activity (MELK (human); compound 10.0 µM): 39%
residual activity (AURKA (human); compound 1.0 µM): 105%
residual activity (AURKA (human); compound 10.0 µM): 81%
residual activity (CDK2 CCNA2 (human); compound 1.0 µM): 94%
residual activity (CDK2 CCNA2 (human); compound 10.0 µM): 72%
residual activity (MAP2K2 (human); compound 1.0 µM): 118%
residual activity (MAP2K2 (human); compound 10.0 µM): 98%
residual activity (PHKG1 (human); compound 1.0 µM): 45%
residual activity (PHKG1 (human); compound 10.0 µM): 8%
residual activity (ERBB4 (human); compound 1.0 µM): 74%
residual activity (ERBB4 (human); compound 10.0 µM): 65%
residual activity (RIPK2 (human); compound 1.0 µM): 94%
residual activity (RIPK2 (human); compound 10.0 µM): 79%
residual activity (PRKACA (human); compound 1.0 µM): 102%
residual activity (AURKB (human); compound 1.0 µM): 68%
residual activity (AURKB (human); compound 10.0 µM): 24%
residual activity (DYRK2 (human); compound 1.0 µM): 40%
residual activity (DYRK2 (human); compound 10.0 µM): 9%
residual activity (PIM2 (human); compound 1.0 µM): 100%
residual activity (PIM2 (human); compound 10.0 µM): 107%
residual activity (BRSK1 (human); compound 1.0 µM): 85%
residual activity (BRSK1 (human); compound 10.0 µM): 69%
residual activity (EEF2K (human); compound 1.0 µM): 103%
residual activity (EEF2K (human); compound 10.0 µM): 107%
residual activity (BTK (human)): 115%
residual activity (FGFR1 (human); compound 1.0 µM): 97%
residual activity (FGFR1 (human); compound 10.0 µM): 104%
residual activity (MAPKAPK5 (human); compound 1.0 µM): 77%
residual activity (MAPKAPK5 (human); compound 10.0 µM): 49%
residual activity (SRPK1 (human); compound 1.0 µM): 84%
residual activity (SRPK1 (human); compound 10.0 µM): 69%
residual activity (INSRR (human); compound 1.0 µM): 84%
residual activity (INSRR (human); compound 10.0 µM): 67%
residual activity ([1]; compound 1.0 µM): 88%
residual activity ([1]; compound 10.0 µM): 70%
residual activity (MST4 (human); compound 1.0 µM): 89%
residual activity (MST4 (human); compound 10.0 µM): 87%
residual activity ([2]; compound 1.0 µM): 89%
residual activity ([2]; compound 10.0 µM): 88%
residual activity (RPS6KA3 KD1 KD2 (human); compound 1.0 µM): 77%
residual activity (RPS6KA3 KD1 KD2 (human); compound 10.0 µM): 25%
Compound: COc1cc(C(=O)N2CCOCC2)c(F)cc1Nc1ncc(C(F)(F)F)c(NC2CC2)n1
residual activity (MAPK15 (human); compound 1.0 µM): 81%
residual activity (MAPK15 (human); compound 10.0 µM): 28%
